Test results: patent US4880807A, “Nicotinoylpiperazines useful for treatment of convulsions” (Institut De Recherches Chimiques et Biologiques Appliquees …, priority 1987, dated 1989)

System: not listed separately
Test: oral toxicity in mice (LD50, mortality over 14 days)
Details: mouse, in vivo, po
Procedure: The toxicity of the products to be studied was investigated by the oral administration, using an esophageal tube, of each of the said products to male mice with a body weight of 18 to 22 g, divided into groups each containing 10 to 20 animals. The mortality was recorded over a 14-day period.

SMILES | LD50 at 336 h
O=C(c1cccnc1)N1CCN(c2ccc(F)cc2)CC1 [Ex. 11, 4-(4-fluorophenyl)-1-nicotinoylpiperazine] | 625 mg/kg
CN1C(=O)OC(C)(C)C1=O [TRIM, trimethadione, reference compound] | 2180 mg/kg
Cc1ccccc1N1CCN(C(=O)c2cccnc2)CC1 [Ex. 13] | 1000 mg/kg

Same assay, conditions: mouse, in vivo, po, LD50, oral (esophageal tube), male mice, groups of 10 to 20, 14 days; Table II

SMILES | LD50 at 336 h
Cc1cccc(N2CCN(C(=O)c3cccnc3)CC2)c1C [Ex. 3] | > 1000 mg/kg
O=C(c1cccnc1)N1CCN(c2ccccc2C(F)(F)F)CC1 [Ex. 12] | > 1000 mg/kg
Cl.Cl.O=C(c1cccnc1)N1CCN(c2cccc(C(F)(F)F)c2)CC1 [Ex. 1, 1-nicotinoyl-4-(3-trifluoromethylphenyl)piperazine dihydrochloride] | 575 mg/kg
COc1cccc(N2CCN(C(=O)c3cccnc3)CC2)c1 [Ex. 15] | > 1000 mg/kg
COc1ccc(N2CCN(C(=O)c3cccnc3)CC2)cc1 [Ex. 16] | > 1000 mg/kg
O=C(c1cccnc1)N1CCN(c2cccc(C(F)(F)F)c2)CC1 [Ex. 6, 1-nicotinoyl-4-(3-trifluoromethylphenyl)piperazine] | 422 mg/kg
CCOc1cccc(N2CCN(C(=O)c3cccnc3)CC2)c1 [Ex. 18] | 540 mg/kg
CCOc1ccccc1N1CCN(C(=O)c2cccnc2)CC1 [Ex. 5] | 1000 mg/kg
O=C(c1cccnc1)N1CCN(c2ccccc2F)CC1 [Ex. 8] | 1000 mg/kg

Same assay, conditions: mouse, in vivo, po, LD50, per os, male mice; repeated in Table IV

SMILES | LD50 at 336 h
Cl.Cl.O=C(c1cccnc1)N1CCN(c2cccc(C(F)(F)F)c2)CC1 [Ex. 1, 1-nicotinoyl-4-(3-trifluoromethylphenyl)piperazine dihydrochloride] | 575 mg/kg
O=C(c1cccnc1)N1CCN(c2cccc(C(F)(F)F)c2)CC1 [Ex. 6, 1-nicotinoyl-4-(3-trifluoromethylphenyl)piperazine] | 422 mg/kg
CCOc1cccc(N2CCN(C(=O)c3cccnc3)CC2)c1 [Ex. 18] | 540 mg/kg
O=C(c1cccnc1)N1CCN(c2ccccc2F)CC1 [Ex. 8] | 1000 mg/kg
CN1C(=O)OC(C)(C)C1=O [TRIM, trimethadione, reference compound] | 2180 mg/kg

System: convulsions induced by pentetrazole
Test: animal or person
Details: LD50 per os/ED50 per os, PTZ convulsions
Description: (§1) The anticonvulsant properties were investigated on male mice, thirty minutes after the oral administration of the substances to be studied, by the induction of convulsive seizures.

SMILES | Therapeutic index PTZ (LD50/ED50)
Cl.Cl.O=C(c1cccnc1)N1CCN(c2cccc(C(F)(F)F)c2)CC1 [Ex. 1, 1-nicotinoyl-4-(3-trifluoromethylphenyl)piperazine dihydrochloride] | 33.8
O=C(c1cccnc1)N1CCN(c2cccc(C(F)(F)F)c2)CC1 [Ex. 6, 1-nicotinoyl-4-(3-trifluoromethylphenyl)piperazine] | 32.5
CCOc1cccc(N2CCN(C(=O)c3cccnc3)CC2)c1 [Ex. 18] | 7.5
O=C(c1cccnc1)N1CCN(c2ccccc2F)CC1 [Ex. 8] | 5.6
CN1C(=O)OC(C)(C)C1=O [TRIM, trimethadione, reference compound] | 8.7
Cc1ccccc1N1CCN(C(=O)c2cccnc2)CC1 [Ex. 13] | 6.2

Same assay, conditions: Mus musculus, po, 0.5 h, read-out: ED50 in respect of convulsions induced by PTZ, per os, male mice, 30 min after administration, pentetrazole 125 mg/kg i.p.; dose protecting 50% of animals

SMILES | ED50
Cc1cccc(N2CCN(C(=O)c3cccnc3)CC2)c1C [Ex. 3] | 110 mg/kg
O=C(c1cccnc1)N1CCN(c2ccccc2C(F)(F)F)CC1 [Ex. 12] | > 200 mg/kg
Cl.Cl.O=C(c1cccnc1)N1CCN(c2cccc(C(F)(F)F)c2)CC1 [Ex. 1, 1-nicotinoyl-4-(3-trifluoromethylphenyl)piperazine dihydrochloride] | 17 mg/kg
COc1cccc(N2CCN(C(=O)c3cccnc3)CC2)c1 [Ex. 15] | 183 mg/kg
COc1ccc(N2CCN(C(=O)c3cccnc3)CC2)cc1 [Ex. 16] | 120 mg/kg
O=C(c1cccnc1)N1CCN(c2cccc(C(F)(F)F)c2)CC1 [Ex. 6, 1-nicotinoyl-4-(3-trifluoromethylphenyl)piperazine] | 13 mg/kg
CCOc1cccc(N2CCN(C(=O)c3cccnc3)CC2)c1 [Ex. 18] | 72 mg/kg
CCOc1ccccc1N1CCN(C(=O)c2cccnc2)CC1 [Ex. 5] | > 200 mg/kg
O=C(c1cccnc1)N1CCN(c2ccccc2F)CC1 [Ex. 8] | 180 mg/kg
CN1C(=O)OC(C)(C)C1=O [TRIM, trimethadione, reference compound] | 251 mg/kg
Cc1ccccc1N1CCN(C(=O)c2cccnc2)CC1 [Ex. 13] | 161 mg/kg

Same assay, conditions: in words; PTZ and MCE; reference: sodium valproate and trimethadione

SMILES | therapeutic indices compared with reference products
Cl.Cl.O=C(c1cccnc1)N1CCN(c2cccc(C(F)(F)F)c2)CC1 [Ex. 1, 1-nicotinoyl-4-(3-trifluoromethylphenyl)piperazine dihydrochloride] | better than those of the reference products
O=C(c1cccnc1)N1CCN(c2cccc(C(F)(F)F)c2)CC1 [Ex. 6, 1-nicotinoyl-4-(3-trifluoromethylphenyl)piperazine] | better than those of the reference products

Same assay, conditions: po, 0.5 h

SMILES | ED50 in respect of convulsions induced by PTZ
O=C(c1cccnc1)N1CCN(c2ccc(F)cc2)CC1 [Ex. 11, 4-(4-fluorophenyl)-1-nicotinoylpiperazine] | 68 mg/kg

System: convulsions induced by supra maximal electroshock (MCE)
Test: animal or person
Details: LD50 per os/ED50 per os, MCE convulsions
Procedure: as §1
These seizures are caused either by the intraperitoneal injection of pentetrazole (125 mg/kg) or by electrical stimulation of the cornea (supra maximal electroshock, abbreviated to MCE).

SMILES | Therapeutic index MCE (LD50/ED50)
Cl.Cl.O=C(c1cccnc1)N1CCN(c2cccc(C(F)(F)F)c2)CC1 [Ex. 1, 1-nicotinoyl-4-(3-trifluoromethylphenyl)piperazine dihydrochloride] | 30.2
O=C(c1cccnc1)N1CCN(c2cccc(C(F)(F)F)c2)CC1 [Ex. 6, 1-nicotinoyl-4-(3-trifluoromethylphenyl)piperazine] | 21.1
CCOc1cccc(N2CCN(C(=O)c3cccnc3)CC2)c1 [Ex. 18] | 4.6
O=C(c1cccnc1)N1CCN(c2ccccc2F)CC1 [Ex. 8] | 5.6
CN1C(=O)OC(C)(C)C1=O [TRIM, trimethadione, reference compound] | 4.4
Cc1ccccc1N1CCN(C(=O)c2cccnc2)CC1 [Ex. 13] | 5.0

Same assay, conditions: Mus musculus, po, 0.5 h, read-out: ED50 in respect of convulsions induced by MCE, per os, male mice, 30 min after administration, electrical stimulation of the cornea; dose protecting 50% of animals

SMILES | ED50
Cc1cccc(N2CCN(C(=O)c3cccnc3)CC2)c1C [Ex. 3] | > 200 mg/kg
O=C(c1cccnc1)N1CCN(c2ccccc2C(F)(F)F)CC1 [Ex. 12] | > 200 mg/kg
Cl.Cl.O=C(c1cccnc1)N1CCN(c2cccc(C(F)(F)F)c2)CC1 [Ex. 1, 1-nicotinoyl-4-(3-trifluoromethylphenyl)piperazine dihydrochloride] | 19 mg/kg
COc1cccc(N2CCN(C(=O)c3cccnc3)CC2)c1 [Ex. 15] | > 200 mg/kg
COc1ccc(N2CCN(C(=O)c3cccnc3)CC2)cc1 [Ex. 16] | > 200 mg/kg
O=C(c1cccnc1)N1CCN(c2cccc(C(F)(F)F)c2)CC1 [Ex. 6, 1-nicotinoyl-4-(3-trifluoromethylphenyl)piperazine] | 20 mg/kg
CCOc1cccc(N2CCN(C(=O)c3cccnc3)CC2)c1 [Ex. 18] | 118 mg/kg
CCOc1ccccc1N1CCN(C(=O)c2cccnc2)CC1 [Ex. 5] | > 200 mg/kg
O=C(c1cccnc1)N1CCN(c2ccccc2F)CC1 [Ex. 8] | 180 mg/kg
CN1C(=O)OC(C)(C)C1=O [TRIM, trimethadione, reference compound] | 500 mg/kg
Cc1ccccc1N1CCN(C(=O)c2cccnc2)CC1 [Ex. 13] | 200 mg/kg

Same assay, conditions: po, 0.5 h

SMILES | ED50 in respect of convulsions induced by MCE
O=C(c1cccnc1)N1CCN(c2ccc(F)cc2)CC1 [Ex. 11, 4-(4-fluorophenyl)-1-nicotinoylpiperazine] | 75 mg/kg

System: not listed separately
Test: in vivo
Assay type: in vivo
Details: mouse, in vivo, po; per os, male mice, Rota-rod 30 min after administration; dose causing 50% of animals to fall; read-out: TD50 (50% neurotoxic dose)
Description: (§2) The animals (divided into groups each containing ten male mice per dose and per product) are installed on the rod and their fall is observed over the next two minutes.

SMILES | TD50 at 0.5 h
CN1C(=O)OC(C)(C)C1=O [TRIM, trimethadione, reference compound] | 1000 mg/kg
Cc1ccccc1N1CCN(C(=O)c2cccnc2)CC1 [Ex. 13] | 800 mg/kg

Same assay, conditions: mouse, rota-rod, po, per os, male mice, Rota-rod 30 min after administration; dose causing 50% of animals to fall; read-out: TD50 (50% neurotoxic dose)

SMILES | TD50 at 0.5 h
Cl.Cl.O=C(c1cccnc1)N1CCN(c2cccc(C(F)(F)F)c2)CC1 [Ex. 1, 1-nicotinoyl-4-(3-trifluoromethylphenyl)piperazine dihydrochloride] | 154 mg/kg
O=C(c1cccnc1)N1CCN(c2cccc(C(F)(F)F)c2)CC1 [Ex. 6, 1-nicotinoyl-4-(3-trifluoromethylphenyl)piperazine] | 119 mg/kg
CCOc1cccc(N2CCN(C(=O)c3cccnc3)CC2)c1 [Ex. 18] | 291 mg/kg
O=C(c1cccnc1)N1CCN(c2ccccc2F)CC1 [Ex. 8] | 500 mg/kg

System: male mice
Test: in vivo
Assay type: in vivo
Details: TD50 per os/ED50 per os, MCE convulsions
Description: as §2

SMILES | Protection index MCE (TD50/ED50)
Cl.Cl.O=C(c1cccnc1)N1CCN(c2cccc(C(F)(F)F)c2)CC1 [Ex. 1, 1-nicotinoyl-4-(3-trifluoromethylphenyl)piperazine dihydrochloride] | 8.1
O=C(c1cccnc1)N1CCN(c2cccc(C(F)(F)F)c2)CC1 [Ex. 6, 1-nicotinoyl-4-(3-trifluoromethylphenyl)piperazine] | 6.0
Cc1ccccc1N1CCN(C(=O)c2cccnc2)CC1 [Ex. 13] | 4.0

Same assay, conditions: TD50 per os/ED50 per os, PTZ convulsions

SMILES | Protection index PTZ (TD50/ED50)
Cl.Cl.O=C(c1cccnc1)N1CCN(c2cccc(C(F)(F)F)c2)CC1 [Ex. 1, 1-nicotinoyl-4-(3-trifluoromethylphenyl)piperazine dihydrochloride] | 9.1
O=C(c1cccnc1)N1CCN(c2cccc(C(F)(F)F)c2)CC1 [Ex. 6, 1-nicotinoyl-4-(3-trifluoromethylphenyl)piperazine] | 9.1
Cc1ccccc1N1CCN(C(=O)c2cccnc2)CC1 [Ex. 13] | 4.9

Same assay, conditions: mouse, in vivo

SMILES | protection indices compared with reference products
Cl.Cl.O=C(c1cccnc1)N1CCN(c2cccc(C(F)(F)F)c2)CC1 [Ex. 1, 1-nicotinoyl-4-(3-trifluoromethylphenyl)piperazine dihydrochloride] | better than those of the reference products
O=C(c1cccnc1)N1CCN(c2cccc(C(F)(F)F)c2)CC1 [Ex. 6, 1-nicotinoyl-4-(3-trifluoromethylphenyl)piperazine] | better than those of the reference products

Same assay, conditions: mouse, in vivo, po

SMILES | Protection index MCE (TD50/ED50) | Protection index PTZ (TD50/ED50)
CCOc1cccc(N2CCN(C(=O)c3cccnc3)CC2)c1 [Ex. 18] | 2.5 | 4.0
O=C(c1cccnc1)N1CCN(c2ccccc2F)CC1 [Ex. 8] | 2.8 | 2.8
CN1C(=O)OC(C)(C)C1=O [TRIM, trimethadione, reference compound] | 2.0 | 4.0
